pIC50: −log10 of the molar value.
Experiments:
[1] = target: human sEH (Homo sapiens (Human), UniProt P34913); experiment: Fluorescence-based sEH inhibitor screening assay (PHOME substrate); assay type: biochemical; conditions: dose-dependent fluorescence assay
Procedure: Fluorescence-based sEH inhibitor screening assay provided a convenient method for screening human epoxide hydrolase inhibitors. The assay utilized (3-phenyl-oxiranyl)-acetic acid cyano-(6-methoxy-naphthalen-2-yl)-methyl ester (PHOME) as substrate. […] The cyanohydrin quickly decomposed into cyanide ion and the highly fluorescent 6-methoxy-2-naphthaldehyde which was analyzed using an excitation wavelength of 330 nm and emission wavelength of 465 nm after a 30-minute reaction time in darkness.
The background AF was subtracted from the 100% initial activity and inhibitor AFs.

[2] = test system: Plasma protein; experiment: Plasma protein binding, mouse; assay type: in vitro ADME
[3] = test system: Plasma protein; experiment: Plasma protein binding, human; assay type: in vitro ADME
[4] = Metabolic stability, mouse; assay type: in vitro ADME
[5] = Metabolic stability, human; assay type: in vitro ADME
[6] = test system: Caco-2; experiment: Caco-2 permeability; assay type: in vitro ADME
[7] = Aqueous solubility @ pH 7.4; assay type: physicochemical
[8] = target: inducible nitric oxide synthase (iNOS) (Mus musculus (Mouse), UniProt P29477); experiment: iNOS inhibition primary assay; assay type: biochemical; conditions: 10 μM of each compound; mouse cell line
Procedure: Biochemical assay results are presented as the percent inhibition of specific binding or activity. The concentration of each compound was 10 μM.

Sequence of human sEH (P34913 whole entry): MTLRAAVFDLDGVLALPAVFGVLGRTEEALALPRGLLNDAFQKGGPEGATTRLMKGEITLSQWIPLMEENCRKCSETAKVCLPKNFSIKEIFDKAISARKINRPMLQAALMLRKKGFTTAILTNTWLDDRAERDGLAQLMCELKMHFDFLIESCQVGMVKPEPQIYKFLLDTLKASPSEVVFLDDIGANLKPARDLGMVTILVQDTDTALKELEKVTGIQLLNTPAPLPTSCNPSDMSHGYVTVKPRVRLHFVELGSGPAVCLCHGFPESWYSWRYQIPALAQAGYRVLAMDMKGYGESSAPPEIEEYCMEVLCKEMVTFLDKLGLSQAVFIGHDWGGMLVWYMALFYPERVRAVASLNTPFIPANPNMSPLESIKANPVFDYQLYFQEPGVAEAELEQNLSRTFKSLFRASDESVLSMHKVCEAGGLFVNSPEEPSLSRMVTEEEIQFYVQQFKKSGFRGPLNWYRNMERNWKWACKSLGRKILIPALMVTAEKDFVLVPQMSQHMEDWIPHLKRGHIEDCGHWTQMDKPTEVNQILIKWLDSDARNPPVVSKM

Q: With `O=C(NC12CC3CC(CC(C3)C1)C2)NS(=O)(=O)c1ccccc1` [Compound 5d, N-(((3s,5s,7s)-adamantan-1-yl)carbamoyl)benzenesulfonamide] as the molecule, how does the pIC50 [1] read?
A: The pIC50 was 6.98.

Q: Which results are given for `O=C(NC12CC3CC(CC(C3)C1)C2)NS(=O)(=O)c1ccc2ccccc2c1` [Compound 5e]?
A: Plasma protein binding % of bound comp [2]: 98%; Plasma protein binding % of stability [2]: 88%; Plasma protein binding % of stability [3]: 99%; pIC50 [1]: 8.92; Metabolic stability Half life [4]: 2.2 min; Metabolic stability % remaining after 1 h [4]: 0%; Metabolic stability Half life [5]: 33.4 min; Metabolic stability % remaining after 1 h [5]: 45%

Q: With `O=C(NC12CC3CC(CC(C3)C1)C2)NS(=O)(=O)c1ccc(OC(F)(F)F)cc1` [Compound 5i, N-(((3s,5s,7s)-adamantan-1-yl)carbamoyl)-4-(trifluoromethoxy)benzenesulfonamide] as the molecule, how does the “Plasma protein binding % of bound comp” value [2] read?
A: Its value is 98%.

Q: What about the “Plasma protein binding % of stability” value [3] of the same molecule?
A: Its value is 99%.

Q: And the pIC50 [1]?
A: The pIC50 was 8.77.

Q: And the “Metabolic stability Half life” value [4]?
A: Its value is 4.9 min.

Q: And the “Metabolic stability % remaining after 1 h” value [4]?
A: Its value is 0%.

Q: What about the Efflux ratio ([6]; Caco-2) of the same molecule?
A: Its Efflux ratio is 0.8.

Q: What about the “Caco-2 permeability Aical to Basal (Papp)” value ([6]; apical to basal) of the same molecule?
A: Its value is 14.9 cm/sec (10^−6).

Q: What about the “Caco-2 permeability Basal to Apical (Papp)” value ([6]; basal to apical) of the same molecule?
A: Its value is 12.6 cm/sec (10^−6).

Q: What about the “Aqueous Solubility @ pH 7.4” value [7] of the same molecule?
A: The value was 53 μg/mL.

Q: What about the “Metabolic stability Half life” value [5] of the same molecule?
A: Its value is 106.3 min.

Q: What about the “Metabolic stability % remaining after 1 h” value [5] of the same molecule?
A: The value was 80%.

Q: With `C/C(N)=N\C(=N\S(=O)(=O)c1ccc(OC(F)(F)F)cc1)NC12CC3CC(CC(C3)C1)C2` [Compound 7i] as the molecule, how does the pIC50 [1] read?
A: Its pIC50 is 8.00.

Q: For `CSC(=N)NC(=NS(=O)(=O)c1ccc(C(C)(C)C)cc1)NC12CC3CC(CC(C3)C1)C2` [Compound 8b, methyl N—N′-((3s,5s,7s)-adamantan-1-yl)-N′-((4-(tert-butyl)phenyl)sulfonyl)carbamimidoyl)carbamimidothioate], which “% iNOS inhibition” value [8] is on record?
A: Its value is 52%.

Q: With `CS/C(N)=N/C(=NS(=O)(=O)c1ccc(OC(F)(F)F)cc1)NC12CC3CC(CC(C3)C1)C2` [Compound 8i] as the molecule, how does the pIC50 [1] read?
A: The pIC50 was 8.99.

Q: For `C[Se]C(=N)NC(=NS(=O)(=O)c1ccc(C(C)(C)C)cc1)NC12CC3CC(CC(C3)C1)C2` [Compound 9b, methyl N—N′-((3s,5s,7s)-adamantan-1-yl)-N′-((4-(tert-butyl)phenyl)sulfonyl)carbamimidoyl)carbamimidoselenoate], which “% iNOS inhibition” value [8] is on record?
A: Its value is 95%.

Q: Which “% iNOS inhibition” value [8] does the source give for `COc1ccc(S(=O)(=O)/N=C(\N=C(/N)[Se]C)NC23CC4CC(CC(C4)C2)C3)cc1` [Compound 9c] here?
A: The value was 94%.

Q: Which “% iNOS inhibition” value [8] does the source give for `C[Se]C(=N)NC(=NS(=O)(=O)c1ccc(C#N)cc1)NC12CC3CC(CC(C3)C1)C2` [Compound 9h, methyl N—N′-((3s,5s,7s)-adamantan-1-yl)-N′-((4-cyanophenyl)-sulfonyl)carbamimidoyl)carbamimidoselenoate] here?
A: The value was 93%.

Q: With `C[Se]/C(N)=N/C(=NS(=O)(=O)c1ccc(OC(F)(F)F)cc1)NC12CC3CC(CC(C3)C1)C2` [Compound 9i] as the molecule, how does the pIC50 [1] read?
A: The pIC50 was 8.42.

Q: What about the “% iNOS inhibition” value [8] of the same molecule?
A: Its value is 87%.

Q: Which “% iNOS inhibition” value [8] does the source give for `C[Se]C(=N)NC(=NS(=O)(=O)c1ccc(C(F)(F)F)cc1)NC12CC3CC(CC(C3)C1)C2` [Compound 9j, methyl N—N′-((3s,5s,7s)-adamantan-1-yl)-N′-((4-(trifluoromethyl)phenyl)sulfonyl)carbamimidoyl)carbamimidoselenoate] here?
A: The value was 90%.

Q: With `O=S(=O)(NC(=S)NC12CC3CC(CC(C3)C1)C2)c1ccccc1` [Compound 11c, N-(((3s,5s,7s)-adamantan-1-yl)carbamothioyl)benzenesulfonamide] as the molecule, how does the pIC50 [1] read?
A: Its pIC50 is 6.88.

Q: With `O=S(=O)(NC(=S)NC12CC3CC(CC(C3)C1)C2)c1ccc(OC(F)(F)F)cc1` [Compound 11d, N-(((3s,5s,7s)-adamantan-1-yl)carbamothioyl)-4-(trifluoromethoxy)benzenesulfonamide] as the molecule, how does the pIC50 [1] read?
A: Its pIC50 is 8.33.

Q: With `NN/C(=N/S(=O)(=O)c1ccc(OC(F)(F)F)cc1)NC12CC3CC(CC(C3)C1)C2` [Compound 13i] as the molecule, how does the pIC50 [1] read?
A: The pIC50 was 6.81.

— patent US20250049736A1, “SULFONAMIDE DERIVATIVES AND THEIR USE AS SOLUBLE EPOXIDE HYDROLASE INHIBITORS” (THE UNITED STATES OF AMERICA, AS REPRESENTED BY THE …, priority 2021, published 2025)
